Measurements taken from ChEMBL document CHEMBL1201862, “PubChem BioAssay data set” (2004).
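48-hour exposure; five concentrations; linearly interpolated endpoints. The concentration for 50% growth inhibition is given as GI50.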 Activity calls are given as the source filed them. No stated cut-off is given here; in the data, active = GI50 up to about 1.1 µM and inactive = higher.

Tests used:
Experiment in all cases: NCI anticancer screen, dose series, 48 h
[1] = tested on: A498
[2] = tested on: ACHN
[3] = tested on: CCRF-CEM
[4] = tested on: HCC 2998
[5] = tested on: HCT-15
[6] = tested on: HOP-62
[7] = tested on: HOP-92
[8] = tested on: LOX IMVI
[9] = tested on: M14
[10] = tested on: MOLT-4
[11] = tested on: NCI-H23
[12] = tested on: NCI-H460
[13] = tested on: OVCAR-8
[14] = tested on: RPMI-8226
[15] = tested on: SN12C
[16] = tested on: SNB-75
[17] = tested on: SW-620
[18] = tested on: UO-31
[19] = tested on: COLO 205
[20] = tested on: MDA-MB-231

Structure (SMILES) | GI50 [1] | GI50 [2] | GI50 [3] | GI50 [4] | GI50 [5] [µM] | GI50 [6] | GI50 [7] | GI50 [8] | GI50 [9] | GI50 [10] | GI50 [11] | GI50 [12] | GI50 [13] | GI50 [14] | GI50 [15] | GI50 [16] | GI50 [17] | GI50 [18] | GI50 [19] | GI50 [20]
CCN(CC)CCC(=O)N1CCc2c([nH]c3ccccc23)C1c1cccnc1 (stereo not given) | > 100 µM (inactive) | > 100 µM (inactive) | > 100 µM (inactive) | > 100 µM (inactive) | > 100 | > 100 µM (inactive) | 68.9 µM (inactive) | > 100 µM (inactive) | > 100 µM (inactive) | > 100 µM (inactive) | > 100 µM (inactive) | > 100 µM (inactive) | > 100 µM (inactive) | > 100 µM (inactive) | > 100 µM (inactive) | > 100 µM (inactive) | > 100 µM (inactive) | > 100 µM (inactive) | – | –
N#Cc1ccccc1NC(=O)/C(=N\Nc1ccc([N+](=O)[O-])cc1)C1C(=O)NC(=O)NC1=O | > 100 µM (inactive) | > 100 µM (inactive) | > 100 µM (inactive) | > 100 µM (inactive) | > 100 | > 100 µM (inactive) | 3.69 µM (inactive) | > 100 µM (inactive) | > 100 µM (inactive) | > 100 µM (inactive) | > 100 µM (inactive) | > 100 µM (inactive) | > 100 µM (inactive) | > 100 µM (inactive) | – | > 100 µM (inactive) | > 100 µM (inactive) | 62.8 µM (inactive) | > 100 µM (inactive) | –
C=C(CN(C)C)C(=O)c1ccccc1C | > 100 µM (inactive) | 24.7 µM (inactive) | 7.85 µM (inactive) | > 100 µM (inactive) | 24.9 | > 100 µM (inactive) | 17.7 µM (inactive) | > 69.5 µM (inactive) | 18.1 µM (inactive) | 7.52 µM (inactive) | > 100 µM (inactive) | > 100 µM (inactive) | > 100 µM (inactive) | 15.7 µM (inactive) | 46.9 µM (inactive) | > 71.6 µM (inactive) | 16.1 µM (inactive) | 37.4 µM (inactive) | 15.5 µM (inactive) | –
CC[C@]1(O)C(=O)OCc2c1cc1n(c2=O)Cc2cc3c(N)cccc3nc2-1 | > 100 µM (inactive) | > 100 µM (inactive) | > 100 µM (inactive) | > 100 µM (inactive) | > 100 | > 100 µM (inactive) | > 100 µM (inactive) | > 100 µM (inactive) | > 100 µM (inactive) | > 100 µM (inactive) | > 100 µM (inactive) | > 100 µM (inactive) | > 100 µM (inactive) | > 100 µM (inactive) | > 100 µM (inactive) | 20.5 µM (inactive) | > 100 µM (inactive) | > 100 µM (inactive) | > 100 µM (inactive) | –
O=S(=O)(c1ccc(-c2nnc(-c3ccc(F)cc3)o2)cc1)c1ccc(-c2nnc(-c3ccc(F)cc3)o2)cc1 | 25.5 µM (inactive) | 14.7 µM (inactive) | > 100 µM (inactive) | > 100 µM (inactive) | > 100 | 27 µM (inactive) | 82.4 µM (inactive) | > 100 µM (inactive) | > 100 µM (inactive) | > 100 µM (inactive) | > 100 µM (inactive) | > 100 µM (inactive) | > 100 µM (inactive) | > 100 µM (inactive) | > 100 µM (inactive) | 11.1 µM (inactive) | > 100 µM (inactive) | > 100 µM (inactive) | > 100 µM (inactive) | –
O=C(NCc1cccc(C(F)(F)F)c1)c1cc2sccc2nc1C(F)(F)F | – | 38.7 µM (inactive) | > 100 µM (inactive) | – | – | 33.8 µM (inactive) | 50.9 µM (inactive) | – | > 100 µM (inactive) | 82.2 µM (inactive) | > 100 µM (inactive) | – | 88.7 µM (inactive) | > 100 µM (inactive) | 98.9 µM (inactive) | – | > 100 µM (inactive) | > 100 µM (inactive) | > 100 µM (inactive) | 51.4 µM (inactive)
O=C(C(=O)n1ncc(Cl)c(Cl)c1=O)n1ncc(Cl)c(Cl)c1=O | > 100 µM (inactive) | 16.9 µM (inactive) | 6.85 µM (inactive) | 23.3 µM (inactive) | 17.5 | > 100 µM (inactive) | 23.2 µM (inactive) | 30.1 µM (inactive) | 25.1 µM (inactive) | 14.8 µM (inactive) | 19.8 µM (inactive) | 45.7 µM (inactive) | 23.1 µM (inactive) | 4.18 µM (inactive) | 24.4 µM (inactive) | 40.8 µM (inactive) | 19.4 µM (inactive) | 48.5 µM (inactive) | 13.9 µM (inactive) | –
CC1(C(=O)Nc2ccc3cc4ccccc4cc3c2)CC2(C)CC(C)(C1)C(O)NC2=O (stereo not given) | > 100 µM (inactive) | 36.7 µM (inactive) | 34.4 µM (inactive) | > 100 µM (inactive) | > 100 | > 100 µM (inactive) | 59.3 µM (inactive) | 62.4 µM (inactive) | > 100 µM (inactive) | 20.6 µM (inactive) | > 100 µM (inactive) | 56 µM (inactive) | > 100 µM (inactive) | 61.1 µM (inactive) | > 100 µM (inactive) | > 100 µM (inactive) | > 100 µM (inactive) | > 100 µM (inactive) | 41.6 µM (inactive) | –
O=C(Nc1c(Cl)cc([N+](=O)[O-])cc1Cl)C(=O)C(C(=O)c1ccncc1)C1OC(=O)c2ccccc21 (stereo not given) | > 100 µM (inactive) | > 100 µM (inactive) | > 100 µM (inactive) | > 100 µM (inactive) | > 100 | > 100 µM (inactive) | > 100 µM (inactive) | > 100 µM (inactive) | > 100 µM (inactive) | > 100 µM (inactive) | > 100 µM (inactive) | > 100 µM (inactive) | > 100 µM (inactive) | > 100 µM (inactive) | > 100 µM (inactive) | 35 µM (inactive) | > 100 µM (inactive) | > 100 µM (inactive) | > 100 µM (inactive) | –
Cc1cc2c(cc1C)[n+]([O-])c(C(=O)CC(=O)C(=O)Nc1ccccc1C(C)C)c(C)[n+]2[O-] | > 100 µM (inactive) | > 100 µM (inactive) | > 100 µM (inactive) | > 100 µM (inactive) | > 100 | > 100 µM (inactive) | > 100 µM (inactive) | > 100 µM (inactive) | > 100 µM (inactive) | > 100 µM (inactive) | > 100 µM (inactive) | > 100 µM (inactive) | > 100 µM (inactive) | > 100 µM (inactive) | > 100 µM (inactive) | > 100 µM (inactive) | > 100 µM (inactive) | > 100 µM (inactive) | > 100 µM (inactive) | –
O=[N+]([O-])c1ccc(Cl)c(C2CC(c3cccc4ccccc34)=Nc3ccccc3S2)c1 (stereo not given) | > 45.2 µM (inactive) | 34.1 µM (inactive) | 3.43 µM (inactive) | 69 µM (inactive) | 15.2 | 55.7 µM (inactive) | 2.64 µM (inactive) | 20 µM (inactive) | 20.6 µM (inactive) | 6.75 µM (inactive) | 11.4 µM (inactive) | 26.5 µM (inactive) | 12.9 µM (inactive) | 2.6 µM (inactive) | 21 µM (inactive) | 0.195 µM (active) | 18.8 µM (inactive) | 18.4 µM (inactive) | 61.2 µM (inactive) | –
CCOC(=O)Nc1ccc(S(=O)(=O)OC)cc1.CCOC(=O)Nc1ccc(S(=O)(=O)OC)cc1.NNC(=O)c1ccncc1 | > 50 µM (inactive) | > 50 µM (inactive) | 9.08 µM (inactive) | > 50 µM (inactive) | > 50 | > 50 µM (inactive) | > 50 µM (inactive) | > 50 µM (inactive) | > 50 µM (inactive) | > 50 µM (inactive) | > 50 µM (inactive) | > 50 µM (inactive) | > 50 µM (inactive) | 14.6 µM (inactive) | > 50 µM (inactive) | > 50 µM (inactive) | 12.1 µM (inactive) | > 50 µM (inactive) | > 50 µM (inactive) | –
COC(=O)CC(C(C(=O)OC)C(=O)OC)N1C(=O)OCC1c1ccccc1 (stereo not given) | > 100 µM (inactive) | > 100 µM (inactive) | > 100 µM (inactive) | 28.5 µM (inactive) | > 100 | > 100 µM (inactive) | > 100 µM (inactive) | > 100 µM (inactive) | > 100 µM (inactive) | > 100 µM (inactive) | > 100 µM (inactive) | > 100 µM (inactive) | > 100 µM (inactive) | 58.6 µM (inactive) | > 100 µM (inactive) | > 100 µM (inactive) | 43.5 µM (inactive) | > 100 µM (inactive) | > 100 µM (inactive) | –
CC(C)(CCCCC(C)(C)[N+](C)(C)C)[N+](C)(C)C | – | > 10 µM (inactive) | > 100 µM (inactive) | > 100 µM (inactive) | > 100 | > 100 µM (inactive) | – | – | > 100 µM (inactive) | > 100 µM (inactive) | – | > 100 µM (inactive) | > 100 µM (inactive) | > 100 µM (inactive) | > 100 µM (inactive) | > 100 µM (inactive) | > 100 µM (inactive) | > 100 µM (inactive) | > 100 µM (inactive) | > 100 µM (inactive)
COc1ccccc1/C=C1\CCC(CCN(C)C)(C2=CCCC2)C1=O (stereo not given) | 16.6 µM (inactive) | 16.7 µM (inactive) | 16.5 µM (inactive) | 18 µM (inactive) | 19.2 | 17.3 µM (inactive) | 16.9 µM (inactive) | 17.1 µM (inactive) | 15.5 µM (inactive) | 20.7 µM (inactive) | 31.6 µM (inactive) | 14.8 µM (inactive) | 17.5 µM (inactive) | 17.8 µM (inactive) | 22.1 µM (inactive) | 17.4 µM (inactive) | 17.5 µM (inactive) | 17.6 µM (inactive) | 10.2 µM (inactive) | –
